Measured values reported in paper PMC11855478, “Bicyclic N,S-Acetals Containing Fused Cysteine-Amide System as New Heterocyclic Class Targeting Human Farnesyltransferase (FTase-h)” (International Journal of Molecular Sciences, 2025).
pIC50: −log10 of the molar value. Where two headings read alike, the source gives them in different places.

Experiments:
[1] = biological target: human farnesyltransferase (FTase) (Homo sapiens, UniProt P49354+P49356); experiment: FTase inhibitory assay (fluorescence, Dansyl-GCVLS); assay type: biochemical; settings: for % FTI: inhibition of human FTase at 100 μM of tested compound, mean of two experiments; for pIC50: human FTase in vitro
Method: With 40 new products in hand, the determination of their inhibitory activity on human farnesyl-transferase (FTase) in vitro was first undertaken. Dimethyl sulfoxide (DMSO) was used as the negative control, and Chaetomellic acid A was the positive reference in all assays. At the outset, and in order to select only significant results, products with an inhibitory power greater than 60% at an initial screening concentration of 100 µM were retained for the determination of their IC50 and, therefore, for further discussion. Moreover, given the number of products tested, they are grouped into three subfamilies on the basis of the degree of the sulphur atom oxidation (series of sulfides, series of sulfoxides, and series of sulfones), and the results obtained are grouped in Table 1, Table 2 and Table 3.
3.3. FTase Inhibitory Assay
Assays were realized in 96-well plates, prepared with a Biomek NKMC and a Biomek 3000 from Beckman Coulter, and read on a Wallac Victor fluorimeter from PerkinElmer. Per well, 20 µL of farnesyl pyrophosphate (10 μM) was added to 180 µL of a solution containing 2 µL of varied concentrations of potential inhibitors (dissolved in DMSO) and 178 μL of a solution composed of 10 μL of partially purified recombinant human FTase (15 µg mL^−1) and 1.0 µL of Dansyl-GCVLS peptide (in the following buffer: 5.6 mM DTT, 5.6 mM MgCl2, 12 μM ZnCl2 and 0.2% (w/v) octyl-β-D-glucopyranoside, 52 mM Tris/HCl, pH 7.5). Fluorescence was recorded for 15 min (0.7 s per well, 20 repeats) at 30 °C with an excitation filter at 340 nm and an emission filter of 486 nm. Each measurement was reproduced twice, in duplicate. The kinetic experiments were realized under the same conditions, either with FPP as varied substrate with a constant concentration of Dns-GCVLS of 2.5 μM or with Dns-GCVLS as varied substrate with a constant concentration of FPP of 10 μM. Non-linear regressions were performed using the Excel software.

FTase = settings: Figure 1, cited from earlier work

| % FTI [1] [%] | Structure (SMILES) | other results |
| --- | --- | --- |
| 62 | COc1cccc(CNC(=O)[C@@H]2C[S+]([O-])[C@@]3(C)c4ccccc4C(=O)N23)c1 (some centres unmarked) [5bE] |  |
| 76 | C[C@]12c3ccccc3C(=O)N1[C@H](C(=O)NCc1ccc(Cl)cc1Cl)CS2(=O)=O [7bH] | FTase inhibitory activity (in words) [1]: false positive |
| 20 | O=C(NCc1ccccc1)[C@@H]1CS(=O)(=O)[C@H]2c3ccccc3C(=O)N12 [7aA] |  |
| 74 | COc1ccccc1CNC(=O)[C@@H]1CS(=O)(=O)[C@@]2(C)c3ccccc3C(=O)N12 [7bG] | pIC50 [1]: 7.17 |
| 100 | CCCCCCCCCCCCCC/C(C(=O)O)=C(\C)C(=O)O [Ref., Chaetomellic acid A, reference compound] | pIC50 [1]: 6.74 |
| 42 | COc1cccc(CNC(=O)[C@@H]2CS(=O)(=O)[C@H]3c4ccccc4C(=O)N23)c1 [7aE] |  |
| 68 | COc1ccc(CNC(=O)[C@@H]2C[S+]([O-])[C@@]3(C)c4ccccc4C(=O)N23)cc1 (some centres unmarked) [5bF] |  |
| 31 | C[C@]12c3ccccc3C(=O)N1[C@H](C(=O)NCc1ccc(Cl)cc1Cl)C[S+]2[O-] (some centres unmarked) [5bH] |  |
|  | Cn1cncc1[C@@](N)(c1ccc(Cl)cc1)c1ccc2c(c1)c(-c1cccc(Cl)c1)cc(=O)n2C [Tipifarnib (R115777), Tipifarnib] | pIC50 (FTase; known FTIs): 8.10 |
|  | CCCC[C@@H](C)/C=C(C)/C=C(\C)C(=O)NC1=C[C@@](O)(/C=C/C=C/C=C/C(=O)NC2=C(O)CCC2=O)[C@@H]2O[C@@H]2C1=O [Manumycin-A] | pIC50 (FTase; known FTIs): 7.52 |
| 43 | C[C@]12c3ccccc3C(=O)N1[C@H](C(=O)NCc1cccc(C(F)(F)F)c1)C[S+]2[O-] (some centres unmarked) [5bD] |  |
| 34 | COc1ccc(CNC(=O)[C@@H]2CS(=O)(=O)[C@H]3c4ccccc4C(=O)N23)cc1 [7aF] |  |
| 53 | COc1ccc(CNC(=O)C2CS(=O)(=O)C3c4ccccc4C(=O)N23)cc1OC (centres unmarked) [7aI] |  |
| 0 | COc1ccc(CNC(=O)[C@@H]2C[S+]([O-])[C@@]3(C)c4ccccc4C(=O)N23)cc1OC (some centres unmarked) [5bI] | FTase inhibitory activity (in words) [1]: complete loss of inhibitory activity |
| 30 | CC12c3ccccc3C(=O)N1C(C(=O)NCc1ccccc1)C[S+]2[O-] (centres unmarked) [5bA] |  |
|  | CS(=O)(=O)CC[C@H](NC(=O)c1cccc(CNC(=O)[C@@H](N)CS)c1)C(=O)O [C-AMBA-M] | pIC50 (FTase; known FTIs): 7.22 |
| 47 | COc1ccccc1CNC(=O)[C@@H]1CS(=O)(=O)[C@H]2c3ccccc3C(=O)N12 [7aG] |  |
| 32 | C[C@]12c3ccccc3C(=O)N1[C@H](C(=O)NCc1cccc(C(F)(F)F)c1)CS2(=O)=O [7bD] |  |
| 13 | COc1ccc(CNC(=O)[C@@H]2CS(=O)(=O)[C@@]3(C)c4ccccc4C(=O)N23)cc1OC [7bI] |  |
| 28 | O=C(NCc1cccc(C(F)(F)F)c1)[C@@H]1CS(=O)(=O)[C@H]2c3ccccc3C(=O)N12 [7aD] |  |
|  | COC1=C(OC)[C@H](O)[C@H](C/C=C(\C)CC/C=C(\C)CCC=C(C)C)[C@@H](C)C1=O [Antroquinonol] | pIC50 (FTase; known FTIs): 5.52 |
| 41 | C[C@]12c3ccccc3C(=O)N1[C@H](C(=O)NCc1ccccc1)CS2(=O)=O [7bA] |  |
|  | CN1C(=O)[C@]23CC4=CC=C[C@H](O)[C@H]4N2C(=O)[C@@]1(CO)SS3 [Gliotoxin] | pIC50 (FTase; known FTI): 4.10; pIC50 (FTase; known FTIs): 7.10 |
| 87 | COc1ccccc1CNC(=O)[C@@H]1C[S+]([O-])[C@@]2(C)c3ccccc3C(=O)N12 (some centres unmarked) [5bG] | pIC50 [1]: 8.39 |
| 44 | COc1ccc(CNC(=O)[C@@H]2CS(=O)(=O)[C@@]3(C)c4ccccc4C(=O)N23)cc1 [7bF] |  |
| 53 | COc1cccc(CNC(=O)[C@@H]2CS(=O)(=O)[C@@]3(C)c4ccccc4C(=O)N23)c1 [7bE] |  |
